≈ marks a conversion by molar mass, not a printed value.
Assays:
[1] = tested on: A549 (human lung carcinoma); assay: WST-1 cell proliferation assay, A549; assay type: cell-based; conditions: mean ± std
Protocol: (§1) Compounds were evaluated for their antiproliferative activity using […] cultured cell lines: A549 (human lung carcinoma, ATCC, Manassas, VA, USA), SNB-19 (human glioblastoma, DSMZ, German Collection of Microorganisms and Cell Cultures), T-47D (human breast cancer, ATCC, Manassas, VA, USA) and NHDF (normal human dermal fibroblasts, ATCC, Manassas, VA, USA). The cultured cells were kept at 37 °C and 5% CO2. The cells were seeded (1 × 10^4 cells/well/100 μL DMEM supplemented with 10% FCS and streptomycin and penicillin) using 96-well plates (Corning). Cells were counted in a hemocytometer (Burker chamber) using a phase contrast Olympus IX50 microscope equipped with Sony SSC-DC58 AP camera and Olympus DP10 digital camera.
(§2) The antiproliferative effect of the compounds exerted on cancer and normal cells was determined using the Cell Proliferation Reagent WST-1 assay (Roche Molecular Biochemicals Mannheim, Germany). This assay is based on a colorimetric method using the enzymatic ability of viable cells to cause the bright red-colored stable tetrazolium monosodium salt [2-(4-iodophenyl)-3-(4-nitrophenyl)-5-(2,4-disulfophenyl)–2H-tetra-zolium] to transform into the dark red-colored soluble formazan. […] An increase in the amount of formazan dye formed correlated with the number of metabolically active cells in the culture. The formazan dye produced by metabolically active cells was quantified by absorbance reading at appropriate wavelengths. The examined cells were exposed to the tested compounds (1 mg/mL DMSO stock) for 72 h at various concentrations (0.1 μg/mL–100 μg/mL). The control was performed in order to eliminate the DMSO effect at the concentration used. Cell cultures were incubated with WST-1 (10 μL) for 1 h. The absorbance of the samples was measured against a background control at 450 nm using a microplate reader with a reference wavelength at 600 nm. The obtained results are expressed as the means of at least two independent experiments performed in triplicate. The antiproliferative activity of the tested compounds were compared to cisplatinum. The values of IC50 (a concentration of a compound that is required for 50% inhibition) were calculated from the dose-response relationship with respect to control.

[2] = tested on: NHDF (normal human dermal fibroblasts); assay: WST-1 cell proliferation assay, NHDF normal cells; assay type: cell-based; conditions: normal cell line, 72 h exposure, mean ± std
Protocol: as §1, §2

[3] = tested on: methicillin-resistant S. aureus SA 630; assay: broth dilution micro-method MIC, MRSA SA 630; assay type: cell-based; conditions: Staphylococcus aureus, clinical isolate, 24 h, 37 °C
Protocol: (§3) The synthesized compounds were evaluated for in vitro antibacterial activity against representatives of multidrug-resistant bacteria and clinical isolates of methicillin-resistant Staphylococcus aureus (MRSA) 63718, SA 630, and SA 3202 that were obtained from the National Institute of Public Health (Prague, Czech Republic). S. aureus ATCC 29213 was used as a reference and quality control strain. Ampicillin (Sigma, St. Louis, MO, USA) was employed as the standard. Prior to testing, each strain was passaged onto nutrient agar (Oxoid, Basingstoke, UK) with 5% of bovine blood, and bacterial inocula were prepared by suspending a small portion of a bacterial colony in sterile phosphate-buffered saline (pH 7.2–7.3). The cell density was adjusted to 0.5 McFarland units using a densitometer (Densi-La-Meter, LIAP, Riga, Latvia). This inoculum was diluted to reach the final concentration of bacterial cells 5 × 10^5 CFU/mL in the wells. […] The final concentrations of the evaluated compounds ranged from 256 to 0.008 μg/mL. The broth dilution micro-method, modified according to the NCCLS (National Committee for Clinical Laboratory Standards) guidelines in Mueller–Hinton (MH) broth, was used to determine the minimum inhibitory concentration (MIC). Drug-free controls, sterility controls, and controls consisting of MH broth and DMSO alone were included. The determination of results was performed visually after 24 h of static incubation in the darkness at 37 °C in an aerobic atmosphere. Each experiment was repeated at least three times.

[4] = tested on: methicillin-resistant S. aureus SA 3202; assay: broth dilution micro-method MIC, MRSA SA 3202; assay type: cell-based; conditions: Staphylococcus aureus, clinical isolate, 24 h, 37 °C
Protocol: as §3

[5] = tested on: SNB-19 (human glioblastoma); assay: WST-1 cell proliferation assay, SNB-19; assay type: cell-based; conditions: mean ± std
Protocol: as §1, §2

[6] = tested on: Staphylococcus aureus ATCC 29213; assay: broth dilution micro-method MIC, S. aureus ATCC 29213; assay type: cell-based; conditions: ATCC29213, 24 h, 37 °C
Protocol: as §3

[7] = tested on: methicillin-resistant S. aureus 63718; assay: broth dilution micro-method MIC, MRSA 63718; assay type: cell-based; conditions: Staphylococcus aureus, clinical isolate, 24 h, 37 °C
Protocol: as §3

[8] = tested on: T47D (human breast cancer); assay: WST-1 cell proliferation assay, T47D; assay type: cell-based; conditions: 72 h exposure, mean ± std
Protocol: as §1, §2

[9] = experimentally determined lipophilicity (logPTLC); assay type: physicochemical; conditions: thin-layer chromatography (TLC)
From the text: In order to examine the lipophilic profile of the investigated compounds, the empirically determined logPTLC parameters (see Table 1) were compared with the theoretically approximated lipophilicity coefficients (clogP) using an ensemble of in silico predictors, e.g., clogP, Molinspiration, Osiris, HyperChem 7.0, Sybyl-X, MarvinSketch 15, ACD/ChemSketch 2015, Dragon 6.0, Kowwin, XlogP3, ChemDraw and ACD/Percepta programs. Subsequently, the deduced clogP parameters were cross-compared with the experimental logPTLC and inter-correlated with each other as presented in Figure 5. A good correlation was obtained (r = 0.94) for the MarvinSketch-made clogP values and the empirical logPTLC was recorded, respectively. […] A quite high inter-correlation was observed among the programs for lipophilicity specification. Obviously, some variations in clogP values resulted from different in silico algorithms (atom/fragment- or descriptor-based) implemented in the programs and/or training data employed in the training step [33].

[10] = tested on: MRSA isolates; assay: broth dilution micro-method MIC, MRSA isolates (pooled statement); assay type: cell-based; conditions: Staphylococcus aureus; range over three MRSA isolates and both compounds; read-out: MICs against MRSA isolates
Protocol: as §3, with “The determination of results was performed visually after 24 h of static incubation in the darkness at 37 °C in an aerobic atmosphere. Each experiment was repeated at least three times.” left out

[11] = Homo sapiens, A549, 72 h exposure
[12] = Homo sapiens, SNB-19, 72 h exposure

SMILES: C[n+]1cc2c(c3ccccc31)Nc1cccnc1S2 [3a, 5-methyl-12H-quino[3,4-b]pyrido[5,6-e][1,4]thiazinium chloride]
- IC50 [1, 11]: 70.3 ± 9.8 µM
- IC50 ([2]; Homo sapiens, NHDF): 21.1 ± 1.5 µM
- MIC [3]: 106 µM
- MIC [4]: 212 µM
- IC50 [5, 12]: 132 ± 11.6 µM
- MIC [6]: 212 µM
- MIC [7]: 212 µM
- IC50 ([8]; Homo sapiens, T47D): 46.2 ± 7.1 µM
- chromatographic logP [9]: 3.53

SMILES: C[n+]1cc2c(c3ccccc31)Nc1ccc(Br)nc1S2 [3b, 9-bromo-5-methyl-12H-quino[3,4-b]pyrido[5,6-e][1,4]thiazinium chloride]
- IC50 [1, 11]: 23.8 ± 1.7 µM
- IC50 ([2]; Homo sapiens, NHDF): 0.8 ± 0.05 µM
- MIC [3]: 337 µM
- MIC [4]: 337 µM
- IC50 [5, 12]: 4.1 ± 0.3 µM
- MIC [6]: 337 µM
- MIC [7]: 337 µM
- IC50 ([8]; Homo sapiens, T47D): 5.2 ± 0.4 µM
- chromatographic logP [9]: 4.8

SMILES: C[n+]1cc2c(c3ccccc31)Nc1cc(Br)cnc1S2 [3c, 10-bromo-5-methyl-12H-quino[3,4-b]pyrido[5,6-e][1,4]thiazinium chloride]
- IC50 [1, 11]: 20.6 ± 1.2 µM
- IC50 ([2]; Homo sapiens, NHDF): 11 ± 1.4 µM
- MIC [10]: 12.5 to 42.1 µM
- MIC [3]: 21.1 µM
- MIC [4]: 42.1 µM
- IC50 [5, 12]: 3.4 ± 0.2 µM
- MIC [6]: 42.1 µM
- MIC [7]: 42.1 µM
- IC50 ([8]; Homo sapiens, T47D): 12.2 ± 1.7 µM
- chromatographic logP [9]: 4.57

SMILES: C[n+]1cc2c(c3ccccc31)Nc1ccc(Cl)nc1S2 [3d, 9-chloro-5-methyl-12H-quino[3,4-b]pyrido[5,6-e][1,4]thiazinium chloride]
- IC50 [1, 11]: 2 ± 0.3 µM
- IC50 ([2]; Homo sapiens, NHDF): 7.7 ± 0.5 µM
- MIC [3]: 381 µM
- MIC [4]: 381 µM
- IC50 [5, 12]: 1.3 ± 0.1 µM
- MIC [6]: 381 µM
- MIC [7]: 381 µM
- IC50 ([8]; Homo sapiens, T47D): 2.3 ± 0.3 µM
- chromatographic logP [9]: 4.62

SMILES: C[n+]1cc2c(c3ccccc31)Nc1ccc(F)nc1S2 [3e, 9-fluoro-5-methyl-12H-quino[3,4-b]pyrido[5,6-e][1,4]thiazinium chloride]
- IC50 [1, 11]: 2.1 ± 0.35 µM
- IC50 ([2]; Homo sapiens, NHDF): 1.1 ± 0.14 µM
- MIC [10]: 12.5 to 42.1 µM
- MIC [3]: 12.5 µM
- MIC [4]: 25.1 µM
- IC50 [5, 12]: 0.4 ± 0.08 µM
- MIC [6]: 50.2 µM
- MIC [7]: 25.1 µM
- IC50 ([8]; Homo sapiens, T47D): 2.8 ± 0.35 µM
- chromatographic logP [9]: 4.24

SMILES: C[n+]1cc2c(c3ccccc31)Nc1ccc(I)nc1S2 [3f, 9-iodo-5-methyl-12H-quino[3,4-b]pyrido[5,6-e][1,4]thiazinium chloride]
- IC50 [1, 11]: 115 ± 10.7 µM
- IC50 ([2]; Homo sapiens, NHDF): 97.4 ± 6.2 µM
- MIC [3]: 299 µM
- MIC [4]: 299 µM
- IC50 [5, 12]: 62.5 ± 6.6 µM
- MIC [6]: 299 µM
- MIC [7]: 299 µM
- IC50 ([8]; Homo sapiens, T47D): 128 ± 18.2 µM
- chromatographic logP [9]: 5.09

SMILES: Cc1cc(Cl)nc2c1Nc1c(c[n+](C)c3ccccc13)S2 [3g, 9-chloro-5,11-dimethyl-12H-quino[3,4-b]pyrido[5,6-e][1,4]thiazinium chloride]
- IC50 [1, 11]: 20 ± 1.6 µM
- IC50 ([2]; Homo sapiens, NHDF): 3.8 ± 0.3 µM
- MIC [3]: > 731 µM
- MIC [4]: > 731 µM
- IC50 [5, 12]: 3.5 ± 0.2 µM
- MIC [6]: > 731 µM
- MIC [7]: > 731 µM
- IC50 ([8]; Homo sapiens, T47D): 26.7 ± 1.6 µM
- chromatographic logP [9]: 5.66

SMILES: Cc1cc(F)nc2c1Nc1c(c[n+](C)c3ccccc13)S2 [3h, 9-fluoro-5,11-dimethyl-12H-quino[3,4-b]pyrido[5,6-e][1,4]thiazinium chloride]
- IC50 [1, 11]: 15.4 ± 1 µM
- IC50 ([2]; Homo sapiens, NHDF): 28.5 ± 4 µM
- MIC [3]: 383 µM
- MIC [4]: 383 µM
- IC50 [5, 12]: 126 ± 14.8 µM
- MIC [6]: 383 µM
- MIC [7]: 383 µM
- IC50 ([8]; Homo sapiens, T47D): 47.7 ± 2.8 µM
- chromatographic logP [9]: 5.72

SMILES: Cc1ccnc2c1Nc1c(c[n+](C)c3ccccc13)S2 [3i, 5,11-dimethyl-12H-quino[3,4-b]pyrido[5,6-e][1,4]thiazinium chloride]
- IC50 [1, 11]: 69.3 ± 5.3 µM
- IC50 ([2]; Homo sapiens, NHDF): 0.4 ± 0.07 µM
- MIC [3]: 101 µM
- MIC [4]: 203 µM
- IC50 [5, 12]: 22.1 ± 1.5 µM
- MIC [6]: 203 µM
- MIC [7]: 203 µM
- IC50 ([8]; Homo sapiens, T47D): 18.9 ± 1.4 µM
- chromatographic logP [9]: 4.17

SMILES: COc1ccc2c(n1)Sc1c[n+](C)c3ccccc3c1N2 [3j, 9-methoxy-5-methyl-12H-quino[3,4-b]pyrido[5,6-e][1,4]thiazinium chloride]
- IC50 [1, 11]: 1.7 ± 0.1 µM
- IC50 ([2]; Homo sapiens, NHDF): 2 ± 0.3 µM
- MIC [3]: 96 µM
- MIC [4]: 193 µM
- IC50 [5, 12]: 6.1 ± 0.4 µM
- MIC [6]: 193 µM
- MIC [7]: 193 µM
- IC50 ([8]; Homo sapiens, T47D): 8.1 ± 1 µM
- chromatographic logP [9]: 4.2

SMILES: C[n+]1cc2c(c3ccccc31)Nc1cnccc1S2 [4a, 5-methyl-5H-qujino[3,4-b]pyrido[3,4-e][1,4]thiazinium chloride]
- IC50 [1, 11]: 30.1 ± 3.4 µM
- IC50 ([2]; Homo sapiens, NHDF): 7.5 ± 0.2 µM
- MIC [3]: 424 µM
- MIC [4]: 424 µM
- IC50 [5, 12]: 18.7 ± 1.2 µM
- MIC [6]: 424 µM
- MIC [7]: 424 µM
- IC50 ([8]; Homo sapiens, T47D): 36.8 ± 2.1 µM
- chromatographic logP [9]: 2.93

SMILES: CC1(C)S[C@@H]2[C@H](NC(=O)[C@H](N)c3ccccc3)C(=O)N2[C@H]1C(=O)O [AMP, Ampicillin, reference compound]
- MIC [3]: 45.8 µM (≈ 16 µg/mL)
- MIC [4]: 45.8 µM (≈ 16 µg/mL)
- MIC [6]: 5.72 µM (≈ 2 µg/mL)
- MIC [7]: 45.8 µM (≈ 16 µg/mL)

SMILES: N.N.[Cl][Pt][Cl] [cisplatinum, reference compound]
- IC50 ([1]; 72 h exposure): 3 ± 0.2 µM
- IC50 [2]: 29.9 ± 3.3 µM
- IC50 ([5]; 72 h exposure): 16.7 ± 1.3 µM
- IC50 [8]: 9 ± 0.7 µM

From PMC8658022, “Towards Property Profiling: SYNTHESIS and SAR Probing of New Tetracyclic Diazaphenothiazine Analogues” (International Journal of Molecular Sciences, 2021)
